Source: patent publication US10570122B2, “Compounds with anti-tumoral activity” (AB Science, priority 2015, dated 2020)
“Also recorded” adds a separate entry of the source.

Tests used:
U118 = test: CellTiter-Blue cell-based survival/proliferation assay, U118; settings: Homo sapiens; U118 glioblastoma cell line, 48 h
In short: (§1)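 Tenfold compound dilutions (0–10 μM) were added to 1·10^4 cells/well. Plates incubated 48 h at 37 °C. CellTiter-Blue reduction (4 h, 37 °C) was read as fluorescence at 590 nm, background-corrected with a cell-free blank.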

H1299 = test: CellTiter-Blue cell-based survival/proliferation assay, H1299; settings: Homo sapiens, NCI-H1299; H1299 lung tumor cell line, 48 h
In short: as §1

U87MG = test: CellTiter-Blue cell-based survival/proliferation assay, U87MG; settings: Homo sapiens, U-87 MG; U87_MG glioblastoma cell line, 48 h
In short: as §1

BXPC3 = test: CellTiter-Blue cell-based survival/proliferation assay, BXPC3; settings: Homo sapiens, BXPC-3; BXPC3 pancreas tumor cell line, 48 h
In short: as §1

OPM2 = test: CellTiter-Blue cell-based survival/proliferation assay, OPM2; settings: Homo sapiens, OPM-2, Myeloma cell line OPM2, 48 h, read-out: Anti-tumoral activity (measured IC50) OPM2
In short: as §1

MDAMB231 = test: CellTiter-Blue cell-based survival/proliferation assay, MDAMB231; settings: Homo sapiens, MDA-MB-231; MDAMB231 breast tumor cell line, 48 h
In short: as §1

A498 = test: CellTiter-Blue cell-based survival/proliferation assay, A498; settings: Homo sapiens; A498 kidney tumor cell line, 48 h
In short: as §1

PC3 = test: CellTiter-Blue cell-based survival/proliferation assay, PC3; settings: Homo sapiens, PC-3; PC3 prostate tumor cell line, 48 h
In short: as §1

PANC1 = test: CellTiter-Blue cell-based survival/proliferation assay, PANC1; settings: Homo sapiens, PANC-1; PANC_1 pancreas tumor cell line, 48 h
In short: as §1

HEP2 = test: CellTiter-Blue cell-based survival/proliferation assay, HEP2; settings: Homo sapiens, HEp-2; HEP2 head & neck tumor cell line, 48 h
In short: as §1

MELWO = test: CellTiter-Blue cell-based survival/proliferation assay, MELWO; settings: Homo sapiens; MEL_WO melanoma cell line, 48 h
In short: as §1

[1] = test system: human kinases (456 kinases); test: KINOMEscan in vitro kinase profiling; format: binding; settings: for Interaction with the 456 kinases tested: screened at 1 μM; for Number of hits/number of kinases, S1: S(1): kinases with % Ctrl<1; for S-score, S1: S(1)=(number of kinases with % Ctrl<1)/(number of kinases tested); for Number of hits/number of kinases, S10: S(10): kinases with % Ctrl<10; for S-score, S10: S(10)=(number of kinases with % Ctrl<10)/(number of kinases tested); for Kinase targets, S1: kinases with % Ctrl<1
Procedure: An in vitro kinase profiling was conducted in order to evidence the absence of protein kinase inhibition by the compounds of the invention.
DiscoveRx (Ambit Biosciences) has developed a high-throughput system (KINOMEscan™) for screening of compounds against large numbers of human kinases (456 kinases).
The compounds of the invention were screened at the concentration of 1 μM, and results for primary screen binding interactions were reported as percent control (% Ctrl), where lower numbers indicate stronger hits. DMSO is used as a negative control (100% Ctrl) while a high affinity compound is used as a positive control (0% Ctrl). % Ctrl is calculated as follow:
[formula] Selectivity Score or S-score is a quantitative measure of compound selectivity. It is calculated by dividing the number of kinases that compounds bind to by the total number of distinct kinases tested, excluding mutant variants. S(10)=(number of kinases with % Ctrl<10)/(number of kinases tested), S(1)=(number of kinases with % Ctrl<1)/(number of kinases tested).

HGC27 = test: CellTiter-Blue cell-based survival/proliferation assay, HGC27; settings: Homo sapiens, HGC-27; HGC27 stomach tumor cell line, 48 h
In short: as §1

A549 = test: CellTiter-Blue cell-based survival/proliferation assay, A549; settings: Homo sapiens; A549 lung tumor cell line, 48 h
In short: as §1

HUT78 = test: CellTiter-Blue cell-based survival/proliferation assay, HUT78; settings: Homo sapiens, Lymphoma cell line HUT78, 48 h, read-out: Anti-tumoral activity (measured IC50) HUT78
In short: as §1

TOV112D = test: CellTiter-Blue cell-based survival/proliferation assay, TOV112D; settings: Homo sapiens; TOV112D ovary tumor cell line, 48 h
In short: as §1

A375 = test: CellTiter-Blue cell-based survival/proliferation assay, A375; settings: Homo sapiens, A-375; A375 melanoma cell line, 48 h
In short: as §1

BT20 = test: CellTiter-Blue cell-based survival/proliferation assay, BT20; settings: Homo sapiens, BT-20; BT20 breast tumor cell line, 48 h
In short: as §1

KARPAS299 = test: CellTiter-Blue cell-based survival/proliferation assay, KARPAS299; settings: Homo sapiens, KARPAS-299, Lymphoma cell line KARPAS299, 48 h, read-out: Anti-tumoral activity (measured IC50) KARPAS299
In short: as §1

AGS = test: CellTiter-Blue cell-based survival/proliferation assay, AGS; settings: Homo sapiens; AGS stomach tumor cell line, 48 h
In short: as §1

REC1 = test: CellTiter-Blue cell-based survival/proliferation assay, REC1; settings: Homo sapiens, Lymphoma cell line REC1, 48 h, read-out: Anti-tumoral activity (measured IC50) REC1
In short: as §1

CLS354 = test: CellTiter-Blue cell-based survival/proliferation assay, CLS354; settings: Homo sapiens, CLS-354; CLS354_4 head & neck tumor cell line, 48 h
In short: as §1

DU145 = test: CellTiter-Blue cell-based survival/proliferation assay, DU145; settings: Homo sapiens, DU-145; DU145 prostate tumor cell line, 48 h
In short: as §1

HEPG2 = test: CellTiter-Blue cell-based survival/proliferation assay, HEPG2; settings: Homo sapiens; HEPG2 liver tumor cell line, 48 h
In short: as §1

HCT116 = test: CellTiter-Blue cell-based survival/proliferation assay, HCT116; settings: Homo sapiens, HCT-116; HCT116 colorectal tumor cell line, 48 h
In short: as §1

HL60 = test: CellTiter-Blue cell-based survival/proliferation assay, HL60; settings: Homo sapiens, HL-60, Leukemia cell line HL60, 48 h, read-out: Anti-tumoral activity (measured IC50) HL60
In short: as §1

MESSA = test: CellTiter-Blue cell-based survival/proliferation assay, MESSA; settings: Homo sapiens, MES-SA; MESSA ovary tumor cell line, 48 h
In short: as §1

ACHN = test: CellTiter-Blue cell-based survival/proliferation assay, ACHN; settings: Homo sapiens; ACHN kidney tumor cell line, 48 h
In short: as §1

U2OS = test: CellTiter-Blue cell-based survival/proliferation assay, U2OS; settings: Homo sapiens; U2OS osteosarcoma cell line, 48 h
In short: as §1

DLD1 = test: CellTiter-Blue cell-based survival/proliferation assay, DLD1; settings: Homo sapiens, DLD-1; DLD_1 colorectal tumor cell line, 48 h
In short: as §1

PLCPRF5 = test: CellTiter-Blue cell-based survival/proliferation assay, PLCPRF5; settings: Homo sapiens, PLC-PRF-5; PLC_PRF5 liver tumor cell line, 48 h
In short: as §1

A4513 = test: CellTiter-Blue cell-based survival/proliferation assay, A4513; settings: Homo sapiens; A4513 Ewing cell line, 48 h
In short: as §1

SW579 = test: CellTiter-Blue cell-based survival/proliferation assay, SW579; settings: Homo sapiens; SW579 head & neck tumor cell line, 48 h
In short: as §1

CALU6 = test: CellTiter-Blue cell-based survival/proliferation assay, CALU6; settings: Homo sapiens, Calu-6; CALU6 lung tumor cell line, 48 h
In short: as §1

Row | Structure (SMILES) | IC50 (U118) [nM] | IC50 (H1299) [nM] | IC50 (U87MG) [nM] | IC50 (BXPC3) [nM] | IC50 (OPM2) [nM] | IC50 (MDAMB231) [nM] | IC50 (A498) [nM] | IC50 (PC3) [nM] | IC50 (PANC1) [nM] | IC50 (HEP2) [nM] | IC50 (MELWO) [nM] | IC50 (HGC27) [nM] | IC50 (A549) [nM] | IC50 (HUT78) [nM] | IC50 (TOV112D) [nM] | IC50 (A375) [nM] | IC50 (BT20) [nM] | IC50 (KARPAS299) [nM] | IC50 (AGS) [nM] | IC50 (REC1) [nM] | also measured
1 | CCOCc1ccc(C)c(Nc2nc(-c3ccc(N4CCNC4=O)cc3)cs2)c1 [Example 003, 1-{4-[2-(5-Ethoxymethyl-(2-methyl-phenylamino))-thiazol-4-yl]-phenyl}-imidazolidin-2-one] | > 1000 | > 1000 | > 1000 | ≤ 100 | ≤ 100 | ≤ 100 | ≤ 100 | ≤ 100 | > 1000 | > 1000 | ≤ 100 | > 1000 | > 1000 | ≤ 100 | ≤ 100 | ≤ 100 | > 1000 | ≤ 100 | > 1000 | ≤ 100 | Interaction with the 456 kinases tested [1]: do not efficiently interact; Number of hits/number of kinases, S1 ([1]; tested at 1 μM): 1/456; S-score, S1 ([1]; tested at 1 μM): 0.002; Number of hits/number of kinases, S10 ([1]; tested at 1 μM): 4/456; S-score, S10 ([1]; tested at 1 μM): 0.009; Kinase targets, S1 ([1]; tested at 1 μM): PDGFRB; Kinase targets, S10 ([1]; tested at 1 μM, kinases with % Ctrl<10): KIT, KIT V559D,; also recorded: KIT L576P; IC50 (CLS354): ≤ 100 nM; IC50 (DU145): > 1000 nM; IC50 (HEPG2): > 1000 nM; IC50 (HCT116): 500 to 1000 nM; IC50 (HL60): ≤ 100 nM; IC50 (MESSA): 100 to 500 nM; IC50 (ACHN): ≤ 100 nM; IC50 (U2OS): > 1000 nM; IC50 (DLD1): ≤ 100 nM; IC50 (PLCPRF5): > 1000 nM; IC50 (A4513): ≤ 100 nM; IC50 (SW579): > 1000 nM; IC50 (CALU6): > 1000 nM
2 | CCOCc1ccc(C)c(Nc2ncc(-c3ccc(N4CCNC4=O)cc3)o2)c1 [Example 006, 1-{4-[2-(5-Ethoxymethyl-(2-methyl-phenylamino))-oxazol-5-yl]-phenyl}-imidazolidin-2-one] | > 1000 | > 1000 | > 1000 | ≤ 100 | ≤ 100 | ≤ 100 | 100 to 500 | ≤ 100 | > 1000 | > 1000 | ≤ 100 | > 1000 | > 1000 | ≤ 100 | ≤ 100 | ≤ 100 | 100 to 500 | ≤ 100 | > 1000 | ≤ 100 | Interaction with the 456 kinases tested [1]: do not efficiently interact; Number of hits/number of kinases, S1 ([1]; tested at 1 μM): 0/456; S-score, S1 ([1]; tested at 1 μM): 0.000; Number of hits/number of kinases, S10 ([1]; tested at 1 μM): 0/456; S-score, S10 ([1]; tested at 1 μM): 0.000; Kinase targets, S1 ([1]; tested at 1 μM): None; IC50 (CLS354): ≤ 100 nM; IC50 (DU145): > 1000 nM; IC50 (HEPG2): > 1000 nM; IC50 (HCT116): > 1000 nM; IC50 (HL60): ≤ 100 nM; IC50 (MESSA): > 1000 nM; IC50 (ACHN): ≤ 100 nM; IC50 (U2OS): 100 to 500 nM; IC50 (DLD1): ≤ 100 nM; IC50 (PLCPRF5): > 1000 nM; IC50 (A4513): ≤ 100 nM; IC50 (SW579): > 1000 nM; IC50 (CALU6): > 1000 nM
3 | CCOCc1ccc(C)c(Nc2nc(-c3ccc(-n4ccnc4)cc3)cs2)c1 [Example 017, (5-Ethoxymethyl-2-methyl-phenyl)-[4-(4-imidazol-1-yl-phenyl)-thiazol-2-yl]-amine] | > 1000 | > 1000 | > 1000 | > 1000 | > 1000 | > 1000 | > 1000 | > 1000 | > 1000 | > 1000 | > 1000 | > 1000 | > 1000 | > 1000 | > 1000 | > 1000 | > 1000 | > 1000 | > 1000 | > 1000 | IC50 (CLS354): > 1000 nM; IC50 (DU145): > 1000 nM; IC50 (HEPG2): > 1000 nM; IC50 (HCT116): > 1000 nM; IC50 (HL60): > 1000 nM; IC50 (MESSA): > 1000 nM; IC50 (ACHN): > 1000 nM; IC50 (U2OS): > 1000 nM; IC50 (DLD1): > 1000 nM; IC50 (PLCPRF5): > 1000 nM; IC50 (A4513): > 1000 nM; IC50 (SW579): > 1000 nM; IC50 (CALU6): > 1000 nM
4 | CCOCc1cc(C)cc(Nc2nc(-c3ccc(N4CCNC4=O)cc3)cs2)c1 [Example 018, 1-{4-[2-(3-Ethoxymethyl-(5-methyl-phenylamino))-thiazol-4-yl]-phenyl}-imidazolidin-2-one] | > 1000 | > 1000 | > 1000 | > 1000 | ≤ 100 | > 1000 | 500 to 1000 | > 1000 | > 1000 | ≤ 100 | > 1000 | 500 to 1000 | ≤ 100 | ≤ 100 | ≤ 100 | ≤ 100 | > 1000 | ≤ 100 | > 1000 | ≤ 100 | IC50 (CLS354): ≤ 100 nM; IC50 (DU145): > 1000 nM; IC50 (HEPG2): > 1000 nM; IC50 (HCT116): 100 to 500 nM; IC50 (HL60): ≤ 100 nM; IC50 (MESSA): > 1000 nM; IC50 (ACHN): 500 to 1000 nM; IC50 (U2OS): 100 to 500 nM; IC50 (DLD1): > 1000 nM; IC50 (PLCPRF5): > 1000 nM; IC50 (A4513): ≤ 100 nM; IC50 (SW579): > 1000 nM; IC50 (CALU6): > 1000 nM
